Experimental data taken from publication PMC6843736 (Molecular Pain, 2019).
“And” between values parts separate entries of the source, which are not always exact repeats. Equal values may be shown once. Where a name gives a salt, the structure may show the parent alone.

Legend:
[1] = system: rats with trigeminal chronic constriction injury (CCI); assay: Whisker pad mechanical allodynia; assay type: in vivo, rat; conditions: for dose dependence of mechanical threshold at peak time: 2 h after treatment (gabapentin 1 h); for peak time of mechanical threshold: i.p. or p.o. treatment
[2] = Pharmacokinetic/toxicokinetic study and BBB permeability in rats; assay type: in vivo, rat; conditions: 10 mg/kg; for AUC(0-t) / Cmax: plasma; for Brain Cmax: rat brain, 10 mg/kg i.p.
rats = assay: Observation of neurobehavioral adverse effects after single treatment in rats; assay type: in vivo, rat; conditions: 300 mg/kg i.p. or p.o., most rats, beginning one day after treatment
rat = conditions: i.p.; cited from earlier work

SMILES | AUC(0-t) ([2]; male, Sprague-Dawley, rat, ip) | Cmax ([2]; male, Sprague-Dawley, rat, ip) | Brain Cmax [2] | dose dependence of mechanical threshold at peak time ([1]; i.p. or p.o.) | peak time of mechanical threshold [1] | further results
CN(CCOc1ccc(CC2SC(=O)NC2=O)cc1)c1ccccn1 (stereo not shown) [Rosiglitazone, rosiglitazone, reference compound] | 22800 ng·h/mL and 63.7 µM·h | 4500 ng/mL and 12.6 µM | 0.50 ± 0.06 μg/mL and 1.41 ± 0.27 μM | – | – | attenuation of mechanical allodynia ([1]; doses as high as 1000 mg/kg): did not attenuate mechanical allodynia
NCC1(CC(=O)O)CCCCC1 [gabapentin, reference compound] | – | – | – | dose-dependently increased the mechanical threshold | 1 h | time at which threshold was reduced to previous allodynic levels ([1]; 1 mg/kg single i.p. injection): 2 h; mechanical threshold 1 h after injection ([1]; ELB00824 3 mg/kg i.p. and/or gabapentin 0.3 mg/kg i.p., one-time dose): 4.9 ± 1.2 g
CCc1ccc(CCOc2ccc(CC3SC(=O)NC3=O)cc2)nc1 (stereo not shown) [Pioglitazone, pioglitazone hydrochloride, reference compound] | 34500 ng·h/mL and 87.7 µM·h | 9770 ng/mL and 24.9 µM | 0.68 ± 0.14 μg/mL and 1.73 ± 0.22 μM | dose-dependently increased the mechanical threshold | 2 h | toxic signs and symptoms (rats): showed toxic signs and symptoms; minimal dose required to restore mechanical threshold to baseline ([1]; i.p. or p.o.): 1000 mg/kg; effective dose decreasing neuropathic hypersensitivity ([1]; rodent trigeminal nerve injury models, pioglitazone i.p.): 1000 mg/kg; rat LD50 (rat): 558 to 587 mg/kg; Tmax ([2]; male, Sprague-Dawley, rat, brain, ip): 1 h
O=C(Nc1ccccc1)c1cc([N+](=O)[O-])ccc1Cl [GW9662, reference compound] | – | – | – | – | – | change of mechanical threshold ([1]; 10–30 mg/kg i.p. alone, 1 to 4 h after injection): did not change mechanical threshold
